Measured values from patent US10800741B2 (ANCUREALL PHARMACEUTICAL (SHANGHAI) CO., LTD., priority 2017, dated 2020).

Legend:
Format in all cases: cell-based, Human
Hep3B2 (FGFR3/4+++) = test: In vitro growth inhibition of Hep3B2 tumor cells (MTT/CCK8); conditions: Homo sapiens, Hep3B; in vitro growth inhibition (or induction of apoptosis), cells cultured 3 to 5 days, MTT (CCK8); read-out: IC50 Hep3B2 (FGFR3/4+++)
KCL-22 (BCR-ABL) = test: In vitro growth inhibition of KCL-22 tumor cells (MTT/CCK8); conditions: Homo sapiens, KCL-22; in vitro growth inhibition (or induction of apoptosis), cells cultured 3 to 5 days, MTT (CCK8); read-out: IC50 KCL-22 (BCR-ABL)
Karpas 299 (NPM-ALK) = test: In vitro growth inhibition of Karpas 299 tumor cells (MTT/CCK8); conditions: Homo sapiens, KARPAS-299; in vitro growth inhibition (or induction of apoptosis), cells cultured 3 to 5 days, MTT (CCK8); read-out: IC50 Karpas 299 (NPM-ALK)
H1703 (PDGFRa amp) = test: In vitro growth inhibition of H1703 tumor cells (MTT/CCK8); conditions: Homo sapiens, NCI-H1703; in vitro growth inhibition (or induction of apoptosis), cells cultured 3 to 5 days, MTT (CCK8); read-out: IC50 H1703 (PDGFRa amp)
MOLM-13 (FLT3-ITD) = test: In vitro growth inhibition of MOLM-13 tumor cells (MTT/CCK8); conditions: Homo sapiens, MOLM-13; in vitro growth inhibition (or induction of apoptosis), cells cultured 3 to 5 days, MTT (CCK8); read-out: IC50 MOLM-13 (FLT3-ITD)
Kasumi-1 (KIT N822K) = test: In vitro growth inhibition of Kasumi-1 tumor cells (MTT/CCK8); conditions: Homo sapiens, Kasumi 1; in vitro growth inhibition (or induction of apoptosis), cells cultured 3 to 5 days, MTT (CCK8); read-out: IC50 Kasumi-1 (KIT N822K)
KATO III (FGFR2 amp) = test: In vitro growth inhibition of KATO III tumor cells (MTT/CCK8); conditions: Homo sapiens, KATO III; in vitro growth inhibition (or induction of apoptosis), cells cultured 3 to 5 days, MTT (CCK8); read-out: IC50 KATO III (FGFR2 amp)
H1581 (FGFR1 amp) = test: In vitro growth inhibition of H1581 tumor cells (MTT/CCK8); conditions: Homo sapiens, NCI-H1581; in vitro growth inhibition (or induction of apoptosis), cells cultured 3 to 5 days, MTT (CCK8); read-out: IC50 H1581 (FGFR1 amp)

CNC(=O)c1cc2c(Oc3ccc(NC(=O)Nc4cc(C(C)(C)C)nn4C)cc3Cl)ccnc2cc1OC [Compound 55, 4-{4-[3-(5-tert-butyl-2-methyl-2H-pyrazol-3-yl)-ureido]-2-chloro-phenoxy}-7-methoxy quinolin-6-carboxylic acid methylamide]
IC50 (Hep3B2 (FGFR3/4+++)): 157 nM | IC50 (KCL-22 (BCR-ABL)): 57 nM | IC50 (Karpas 299 (NPM-ALK)): 160 nM | IC50 (H1703 (PDGFRa amp)): 83.3 nM | IC50 (MOLM-13 (FLT3-ITD)): 1.16 nM | IC50 (Kasumi-1 (KIT N822K)): 91.8 nM | IC50 (KATO III (FGFR2 amp)): 2.96 nM | IC50 (H1581 (FGFR1 amp)): 79.9 nM

CNC(=O)c1cc2c(Oc3ccc(NC(=O)Nc4cc(C(C)(C)C)n[nH]4)c(Cl)c3Cl)ccnc2cc1OC [Compound 56, 4-{4-[3-(5-tert-butyl-2H-pyrazol-3-yl)-ureido]-2,3-dichloro-phenoxy}-7-methoxyquinol in-6-carboxylic acid methylamide]
IC50 (Hep3B2 (FGFR3/4+++)): 17.6 nM | IC50 (KCL-22 (BCR-ABL)): 1.4 nM | IC50 (Karpas 299 (NPM-ALK)): 39.2 nM | IC50 (H1703 (PDGFRa amp)): 18.9 nM | IC50 (MOLM-13 (FLT3-ITD)): 2.87 nM | IC50 (Kasumi-1 (KIT N822K)): 1.07 nM | IC50 (KATO III (FGFR2 amp)): 0.28 nM | IC50 (H1581 (FGFR1 amp)): 3.66 nM

CNC(=O)c1cc2c(Oc3ccc(NC(=O)Nc4cc(C(C)(C)C)nn4C)c(Cl)c3Cl)ccnc2cc1OC [Compound 57, 4-{4-[3-(5-tert-butyl-2-methyl-2H-pyrazol-3-yl)-ureido]-2,3-dichloro-phenoxy}-7-methoxyquinolin-6-carboxylic acid methylamide]
IC50 (Hep3B2 (FGFR3/4+++)): 21.9 nM | IC50 (KCL-22 (BCR-ABL)): 2.58 nM | IC50 (Karpas 299 (NPM-ALK)): 69.3 nM | IC50 (H1703 (PDGFRa amp)): 11.7 nM | IC50 (MOLM-13 (FLT3-ITD)): 1.29 nM | IC50 (Kasumi-1 (KIT N822K)): 3 nM | IC50 (KATO III (FGFR2 amp)): 0.41 nM | IC50 (H1581 (FGFR1 amp)): 2.85 nM

CNC(=O)c1cc2c(Oc3ccc(NC(=O)Nc4cc(C(C)(C)C)n[nH]4)c(Cl)c3)ccnc2cc1OCCOC [Compound 58, 4-{4-[3-(5-tert-butyl-2H-pyrazol-3-yl)-ureido]-3-chloro-phenoxy}-7-(2-methoxy-ethoxy)-quinolin-6-carboxylic acid methylamide]
IC50 (Hep3B2 (FGFR3/4+++)): 18.2 nM | IC50 (KCL-22 (BCR-ABL)): 3.11 nM | IC50 (Karpas 299 (NPM-ALK)): 417 nM | IC50 (H1703 (PDGFRa amp)): 14.8 nM | IC50 (MOLM-13 (FLT3-ITD)): 2.33 nM | IC50 (Kasumi-1 (KIT N822K)): 10.3 nM | IC50 (KATO III (FGFR2 amp)): 0.58 nM | IC50 (H1581 (FGFR1 amp)): 5.5 nM

CNC(=O)c1cc2c(Oc3ccc(NC(=O)Nc4cc(C(C)(C)C)nn4C)c(Cl)c3)ccnc2cc1OCCOC [Compound 59, 4-{4-[3-(5-tert-butyl-2-methyl-2H-pyrazol-3-yl)-ureido]-3-chloro-phenoxy}-7-(2-methoxy-ethoxy)-quinolin-6-carboxylic acid methylamide]
IC50 (Hep3B2 (FGFR3/4+++)): 19.4 nM | IC50 (KCL-22 (BCR-ABL)): 9.62 nM | IC50 (Karpas 299 (NPM-ALK)): 195 nM | IC50 (H1703 (PDGFRa amp)): 8.17 nM | IC50 (MOLM-13 (FLT3-ITD)): 2.95 nM | IC50 (Kasumi-1 (KIT N822K)): 1.95 nM | IC50 (KATO III (FGFR2 amp)): 0.11 nM | IC50 (H1581 (FGFR1 amp)): 5.05 nM

CNC(=O)c1cc2c(Oc3ccc(NC(=O)Nc4cc(C(C)(C)C)nn4C)c(Cl)c3Cl)ccnc2cc1OCCOC [Compound 60, 4-{4-[3-(5-tert-butyl-2-methyl-2H-pyrazol-3-yl)-ureido]-2,3-dichloro-phenoxy}-7-(2-methoxy-ethoxy)-quinolin-6-carboxylic acid methylamide]
IC50 (Hep3B2 (FGFR3/4+++)): 5.2 nM | IC50 (KCL-22 (BCR-ABL)): 1.05 nM | IC50 (Karpas 299 (NPM-ALK)): 12.4 nM | IC50 (H1703 (PDGFRa amp)): 6.71 nM | IC50 (MOLM-13 (FLT3-ITD)): 0.89 nM | IC50 (Kasumi-1 (KIT N822K)): 0.493 nM | IC50 (KATO III (FGFR2 amp)): 0.36 nM | IC50 (H1581 (FGFR1 amp)): 1.31 nM

COc1cc2nccc(Oc3ccc(NC(=O)Nc4cc(C(C)(C)C)n[nH]4)c(Cl)c3)c2cc1C(=O)N(C)C [Compound 61]
IC50 (Hep3B2 (FGFR3/4+++)): 368 nM | IC50 (KCL-22 (BCR-ABL)): 599 nM | IC50 (Karpas 299 (NPM-ALK)): 606 nM | IC50 (H1703 (PDGFRa amp)): 75.8 nM | IC50 (MOLM-13 (FLT3-ITD)): 61.4 nM | IC50 (Kasumi-1 (KIT N822K)): 571 nM | IC50 (KATO III (FGFR2 amp)): 18.4 nM | IC50 (H1581 (FGFR1 amp)): 133 nM

COCCNC(=O)c1cc2c(Oc3ccc(NC(=O)Nc4cc(C(C)(C)C)n[nH]4)c(Cl)c3)ccnc2cc1OC [Compound 62, 4-{4-[3-(5-tert-butyl-2H-pyrazol-3-yl)-ureido]-3-chloro-phenoxy}-7-methoxyquinolin-6-carboxylic acid (2-methoxy-ethyl)-amide]
IC50 (Hep3B2 (FGFR3/4+++)): 73.2 nM | IC50 (KCL-22 (BCR-ABL)): 25.8 nM | IC50 (Karpas 299 (NPM-ALK)): 312 nM | IC50 (H1703 (PDGFRa amp)): 93.1 nM | IC50 (MOLM-13 (FLT3-ITD)): 7.83 nM | IC50 (Kasumi-1 (KIT N822K)): 47.5 nM | IC50 (KATO III (FGFR2 amp)): 1.89 nM | IC50 (H1581 (FGFR1 amp)): 13.7 nM

COc1cc2nccc(Oc3ccc(NC(=O)Nc4cc(C(C)(C)C)n[nH]4)c(Cl)c3)c2cc1NC(C)=O [Compound 63, N-(4-{4-[3-(5-tert-butyl-2H-pyrazol-3-yl)-ureido]-3-chloro-phenoxy}-7-methoxyquinolin-6-yl)-acetamide]
IC50 (Hep3B2 (FGFR3/4+++)): 15.9 nM | IC50 (KCL-22 (BCR-ABL)): 4.68 nM | IC50 (Karpas 299 (NPM-ALK)): 113 nM | IC50 (H1703 (PDGFRa amp)): 12 nM | IC50 (MOLM-13 (FLT3-ITD)): 3.12 nM | IC50 (Kasumi-1 (KIT N822K)): 8.81 nM | IC50 (KATO III (FGFR2 amp)): 0.31 nM | IC50 (H1581 (FGFR1 amp)): 4.26 nM
